Laboratory results published in publication PMC4912613, “A broad analysis of resistance development in the malaria parasite” (Nature Communications, 2016).

Tests used:
[1] = tested on: W2; experiment: Cross-resistance EC50 assay, W2 parent; type: cell-based, Plasmodium falciparum; conditions: Plasmodium falciparum, 48 h, read-out: W2F6 (PARENT) Average EC50
Source text: Multidrug resistance alleles, including mutations in P. falciparum chloroquine resistance transporter (pfcrt) and P. falciparum multi-drug resistance transporter 1 (pfmdr1) are very common in field isolates. Therefore, we sought to assess the degree to which pre-existing resistance alleles would contribute to a loss of potency for this diverse collection of small molecule compounds. Fifteen clones derived from three main parent lines were chosen to maximize diversity in mutated pathways and genetic backgrounds, thus representing the variety of resistance seen in the field: 3D7 (ref. [23]), W2 (ref. [24]) or Dd2 (ref. [25]). The 3D7 line originates from the clone of a Netherlands clinical isolate strain[23][26] and is generally considered to be drug sensitive, though it does convey resistance to sulfadoxine. Conversely, W2 (ref. [24], [27]) and Dd2 (ref. [25]) are multi-drug-resistant lines originating from the Indochina III/CDC isolate, which contain point mutations in pfcrt as well as amplifications in pfmdr1 and GTP cyclohydrolase.
(§1) To evaluate potential overlapping activity against known antimalarial drug targets, we performed dose-response studies with each compound against our assembled set of drug-resistant lines and their corresponding parents, in an asexual blood stage proliferation assay (Table 1). Comparisons were made to the drug-sensitive strain 3D7 when a parent was unavailable (TM90C2A, W2 and Dd2). As laboratories conducted EC50 assays with different strains and protocols, all comparisons were made between assays from the same laboratory and under the same assay conditions. Compounds displaying >5-fold EC50 shifts relative to the parent or sensitive strain were flagged as having potentially non-novel targets. Average fold shifts per strain ranged from 0.82 to 2.34, with a median of 1.23 indicating there was not common resistance to any one resistant clone. No resistance patterns were observed when classifying the compounds based on chemical structure, but this was not surprising given the diversity of compounds chosen. On the other hand, given that these confirmed compounds were derived from larger unconfirmed hit lists to which some filtration criteria may have been applied (for example, elimination of obvious dihydrofolate reductase inhibitors[32]), some[10][11][12][13] pre-existing bias may exist in the set.
The 48-h assay was carried out in a 96-well format following standard methods using the ^3H-hypoxanthine incorporation assay. The raw EC50 values corresponding to this assay can be found in Supplementary Data 3. Briefly, this assay relies on the parasite incorporation of labelled hypoxanthine that is proportional to P. falciparum growth. A culture of parasitized RBCs (0.5% parasitemia with a percentage of ring stage higher than 70% of total parasitemia, 2.0% haematocrit) in RPMI-1640, […] and 5 μM hypoxanthine was exposed to drug serial dilutions. Plates were incubated for 24 h at 37 °C, 5% CO2, 5% O2 and 90% N2. After 24 h of incubation, ^3H-hypoxanthine was added and plates were incubated for an additional 24-h period. After that, parasites were harvested on a glass fibre filter using a TOMTEC Cell Harvester 96. Filters were dried and melt-on scintillator sheets were used to determine the incorporation of ^3H-hypoxanthine. Radioactivity was measured using a microbeta counter. Data were normalized using the incorporation of the positive (parasitized RBCs without drug) and negative (same culture with artesunate at 2 μM) controls. All assays were conducted in triplicate using three independently grown cultures, and EC50 values were determined using the XLfit add-in module for Excel (version 2.3.1) from Grafit (version 5.3.1.3), where parameter h is the assay hill slope, x is the compound concentration and y is the inhibition of growth effect. The XLfit equation is: […]
Alternatively, a SYBR Green-based proliferation approach was used for the 72-h assay, as previously described. […]

[2] = tested on: GNF449-R2 (PfATP4 I203L and P990R, parent Dd2); experiment: Cross-resistance EC50 assay, GNF449-R2; type: cell-based; conditions: Plasmodium falciparum, SYBR green 72 hour assay, asynchronized parasites, 96-well or 1536-well format
Source text: as §1, with “set. […]” for “set.”
(§2) Alternatively, a SYBR Green-based proliferation approach was used for the 72-h assay, as previously described. Briefly, a culture of either synchronized or asynchronous parasitized RBCs (0.3% parasitemia and 4% haematocrit) in screening medium (identical to supplemented medium above except no serum was added) was exposed to serial drug dilutions. Plates were incubated at 37 °C and gassed with 93% N2, 4% CO2 and 3% O2 for 72 h. Following incubation, 10 × SYBR Green I (Invitrogen; supplied in 10,000 × concentration) in lysis buffer ([…], 5 mM EDTA, 0.16% Saponin wt per vol and 1.6% Triton X vol per vol) was added to the wells and the plates were incubated overnight at room temperature before plate reading. EC50 assays were repeated three times, taking the average EC50 value from each assay set, and removing any outliers using a single iteration of Grubbs' test, eliminating values with z-scores above the critical z-value (α=0.05). The raw EC50 values for synchronized parasites assayed in a 384-well format are listed in Supplementary Data 4. The raw EC50 values for asynchronous parasites assayed in a 96 or 1536-well format are listed in Supplementary Data 5.
(§3) EC50 values for each strain were compared with those of the corresponding parent strain to determine fold-shift changes and identify resistance. To minimize the cause variance between assays, all comparisons were conducted between strains assayed under identical conditions. A one-way ANOVA followed by a Dunnet's post-test was conducted in GraphPad Prism to identify significant changes between the parent and resistant strain.

[3] = tested on: ProRS (prolyl t-RNA synthetase L482H, parent Dd2); experiment: Cross-resistance EC50 assay, ProRS; type: cell-based; conditions: Plasmodium falciparum; SYBR green 72 hour assay; synchronized parasites; 384-well format; strain ProRS (Dd2 parent)
Source text: as §1, with “set. […]” for “set.”
as §2, §3

[4] = tested on: NITD609-R2 (PfATP4 T418N and P990R, parent Dd2); experiment: Cross-resistance EC50 assay, NITD609-R2; type: cell-based; conditions: Plasmodium falciparum, SYBR green 72 hour assay, asynchronized parasites, 96-well or 1536-well format
Source text: as §1, with “set. […]” for “set.”
as §2, §3

SMILES | EC50 [1] | EC50 [2] | EC50 [3] | EC50 [4]
OC(CNC1CCCCC1)Cn1c2ccc(I)cc2c2cc(I)ccc21 (centres unmarked) [MMV665882] | 26 nM | 0.028 µM | 25 nM | 0.046 µM
COCCNCC(O)Cn1c2ccc(Cl)cc2c2cc(Cl)ccc21 (centres unmarked) [MMV019017] | 138 nM | 0.636 µM | 340 nM | 0.456 µM
COc1cc(-c2nc(-c3ccccc3)c(-c3ccccc3)[nH]2)cc(OC)c1O [MMV020750] | 1870 nM | 1.47 µM | 919 nM | 1.22 µM
CCCN(CCC)CC(O)COc1ccccc1C(=O)Nc1ccccc1 (centres unmarked) [MMV006455] | 106 nM | 0.309 µM | 897 nM | 0.258 µM
O=C(NCC(CCCN1CCC(c2c[nH]c3ccccc23)CC1)c1ccccc1)Nc1ccc(Cl)c(Cl)c1 (centres unmarked) [MMV029272] | 836 nM | 0.373 µM | 592 nM | 0.152 µM
CC(NCc1ccccc1)c1cc(Cl)ccc1O (centres unmarked) [MMV665789] | 147 nM | 0.201 µM | 334 nM | 0.261 µM
FC(F)(F)c1cccc(Nc2nc3ccccc3nc2Nc2cccc(C(F)(F)F)c2)c1 [MMV665794] | 181 nM | 0.37 µM | 93 nM | 0.321 µM
O=C(Nc1ccccc1O)c1ccc(Oc2cccc(C(=O)Nc3ccccc3O)c2)cc1 [MMV665888] | 515 nM | 0.972 µM | 495 nM | 0.812 µM
Nc1ccc(-c2nc3cc(Cc4ccc5[nH]c(-c6ccc(N)cc6)nc5c4)ccc3[nH]2)cc1 [MMV665943] | 191 nM | 0.588 µM | 416 nM | 0.334 µM
COc1cc(C(=O)ON=C(N)Cc2cccc3ccccc23)cc(OC)c1OC [MMV666687] | 463 nM | 0.813 µM | 326 nM | 0.535 µM
CCCOCc1cc(CN2CCN(c3cccc(Cl)c3)CC2)c(O)c2ncccc12 [MMV000787] | 792 nM | 1.7 µM | 484 nM | 1.25 µM
Cc1ccc(Cn2c(N3CCC(C(=O)NCc4cccs4)CC3)nc3ccccc32)cc1 [MMV007564] | 503 nM | 0.739 µM | 416 nM | 0.705 µM
Nc1ccc(-c2nc3cc(Oc4ccc(Oc5ccc6[nH]c(-c7ccc(N)cc7)nc6c5)cc4)ccc3[nH]2)cc1 [MMV011895] | 279 nM | 0.644 µM | 232 nM | 0.56 µM
c1cncc(-c2cc(N3CCC(CN4CCOCC4)CC3)nc(-c3ccncc3)n2)c1 [MMV668399] | 164 nM | 0.938 µM | – | 0.652 µM
CCC(C)NCC(O)(c1ccc(Cl)cc1)c1ccc(Cl)cc1 (centres unmarked) [MMV665928] | 137 nM | 0.16 µM | 360 nM | 0.18 µM
